Test results: patent publication US7572765B2, “Conformationally constrained parathyroid hormone (PTH) analogs” (The General Hospital Corporation, priority 2001, dated 2009)
Ends that are not written are not given here.

Assays:
[1] = Circular dichroism spectroscopy (helical content); assay type: physicochemical
Description: Circular Dichroism. Circular Dichroism spectra were recorded on a Jasco model 710 spectropolarimeter; peptides were analyzed at a concentration of20 μM in 50 mM sodium phosphate buffer pH 7.4, or the same buffer containing 2,2,2-trifluoroethanol at 20% (v/v). Spectroscopic scans were preformed at 20° C. and at wavelengths between […], with data recored at each 1 nM interval. The spectral bandwidth was 1.5 nM and 8 scans were accumulated and averaged for each sample. At each wavelength, the mean residue elipticity [θ×100/l×C×n); where θ is the raw elipticity value (in dimensions of millidegree), l is the sample path length, C=is the molar peptide concentration, and n is the number of residues in the peptide (Bowen, W. P., and Jerman, J. C., Trends in Pharmacol. Sci. 16: 413-417 (1995)). The helical content of each peptide was estimated by dividing [θ] observed at 222 nM for that peptide by −28,100, which is the reported [θ]222obs for a model helical decapeptide (Bowen, W. P., and Jerman, J. C., Trends in Pharmacol. Sci. 16: 413-417 (1995)).
Circular dichroism (CD) spectroscopy was used to analyze the potential effects that the Aib substitutions had on peptide secondary structure when the peptides were free in solution. Samples were analyzed in both aqueous phosphate buffer and in phosphate buffer containing 2,2,2-trifloroethanol, an organic solvent which promotes helical structure in oligopeptides, including PTH peptide fragments (Pellegrini, M., et al., J. Biol. Chem. 273:10420-10427 (1998); Gronwald, W., et al., Biol. Chem. Hoppe Seyler 377:175-186 (1996); Barden, J. A., and Kemp, B. E., Biochemistry 32:7126-7132 (1993)). In phosphate buffer, the helical content of each peptide, estimated from the elipticity observed at 222 nM, was small (≦16%); however, [Aib^1,3,M]PTH(1-14) contained nearly twice as much helix as did [M]PTH(1-14) (16% and 8.1% respectively), as did [Aib^1,3,M]PTH(1-1l), as compared to […] (13% and 7.5% respectively, Table 4). […] The higher helical contents of these two peptides were evident not only from the negative elipticities at […] and 222 nM, but also from the positive elipticities at 192 nM (FIG. 6).

human P1R = target: T1, human P1R (Homo sapiens, UniProt Q03431); conditions: HKRK-B28 cells; previously shown (Shimizu et al., Endocrinology 2001); read-out: cAMP EC50; cited from earlier work
T1 construct: expressed in transfected cells; host or cells: HKRK-B28 (porcine kidney LLC-PK1, stably transfected)
T1 sequence (Q03431 27-593): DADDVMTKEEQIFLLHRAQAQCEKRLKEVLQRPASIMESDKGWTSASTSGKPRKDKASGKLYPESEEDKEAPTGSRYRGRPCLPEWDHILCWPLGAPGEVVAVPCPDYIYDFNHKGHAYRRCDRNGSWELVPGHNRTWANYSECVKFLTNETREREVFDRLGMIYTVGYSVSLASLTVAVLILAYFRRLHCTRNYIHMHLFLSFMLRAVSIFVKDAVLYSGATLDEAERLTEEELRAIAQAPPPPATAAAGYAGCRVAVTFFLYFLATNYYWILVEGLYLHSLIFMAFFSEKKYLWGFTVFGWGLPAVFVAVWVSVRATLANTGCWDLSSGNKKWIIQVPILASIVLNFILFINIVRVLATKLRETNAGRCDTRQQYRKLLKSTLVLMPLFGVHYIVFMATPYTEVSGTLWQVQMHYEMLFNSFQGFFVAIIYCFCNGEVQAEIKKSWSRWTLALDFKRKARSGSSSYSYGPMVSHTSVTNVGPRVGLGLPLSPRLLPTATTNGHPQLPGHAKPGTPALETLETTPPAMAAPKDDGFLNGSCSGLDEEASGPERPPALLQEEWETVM

[0]222obs × 10^−3, Phos. ([1]; 20 μM peptide, 50 mM phosphate buffer pH 7.4)	[0]222obs × 10^−3, Phos + TFE ([1]; 20 μM peptide, 50 mM phosphate buffer with trifluoroethanol (20%))	helical residues (%), Phos + TFE ([1]; 50 mM phosphate buffer with trifluoroethanol (20%), from elipticity at 222 nM) [%]	helical residues (%), Phos. ([1]; 50 mM phosphate buffer, from elipticity at 222 nM) [%]	Substance	EC50 (human P1R) [µM]
−2.1	−9.9	35	7.5	[Ala^3,Gln^10,Har^11]PTH(1-11)amide [[M]PTH(1-11)]	3
–	–	–	–	[Ala^3,Gln^10]PTH(1-10) (SVAEIQLMHQ-NH2; UniProt P01270 32-41, looked up, variant S3A N10Q)	~800
